Source: the supplement of paper PMC10331698
± gives the standard deviation of the averaged measurements.

Assays:
Test in all cases: level (log10 ratio to DMSO vehicle control); higher = higher biomarker level / cell amount than vehicle control
Conditions in all cases: in DMSO
[1] = compound: FC(F)(F)C(F)(F)C(F)(F)C(F)(F)CCI [1H,1H,2H,2H-Perfluorohexyl iodide]
Method: (§1)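 BioMAP Diversity Plus panel of 12 human primary cell co-culture systems (3C, 4H, LPS, SAg, BT, BF4T, BE3C, CASM3C, HDF3CGF, KF3CT, MyoF, Mphg). Compounds were added 1 h before stimulation and left for 24 h (MyoF 48 h; BT 72 h for soluble read-outs or 6 d for IgG). Biomarkers were read by ELISA, cytotoxicity by SRB, PBMC viability and proliferation by Alamar Blue. Each well value was divided by the mean of 8 DMSO control wells on the same plate and log10 transformed; duplicate blinded samples were tested at 4 concentrations.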

[2] = compound: FC(F)(F)COC(OCC(F)(F)F)OCC(F)(F)F [tris(Trifluoroethoxy)methane]
Method: as §1

[3] = compound: O=C(O)C(F)(F)C(F)(F)C(F)(F)C(F)(F)C(F)(F)C(F)(F)C(F)(F)F [Ammonium perfluorooctanoate]
Method: as §1

[4] = compound: OC(C(F)(F)F)(C(F)(F)F)C(O)(C(F)(F)F)C(F)(F)F [Perfluoropinacol]
Method: as §1

[5] = compound: O=S(=O)(OCC(F)(F)F)C(F)(F)C(F)(F)C(F)(F)C(F)(F)F [2,2,2-Trifluoroethyl perfluorobutanesulfonate]
Method: as §1

[6] = compound: C=C(C)C(=O)OCC(F)(F)C(F)(F)C(F)(F)F [2,2,3,3,4,4,4-Heptafluorobutyl methacrylate]
Method: as §1

[7] = compound: Cc1ccc(S(=O)(=O)OCC(F)(F)C(F)(F)C(F)(F)C(F)(F)C(F)(F)C(F)F)cc1 [1H,1H,7H-Perfluoroheptyl 4-methylbenzenesulfonate]
Method: as §1

Test System | level (log10) ([1]; 6700 nM) | level (log10) ([1]; 20000 nM) | level (log10) ([1]; 60000 nM) | level (log10) ([2]; 6700 nM) | level (log10) ([2]; 20000 nM) | level (log10) ([2]; 60000 nM) | level (log10) ([3]; 6700 nM) | level (log10) ([3]; 20000 nM) | level (log10) ([3]; 60000 nM) | level (log10) ([4]; 6700 nM) | level (log10) ([4]; 20000 nM) | level (log10) ([5]; 6700 nM) | level (log10) ([5]; 20000 nM) | level (log10) ([5]; 60000 nM) | level (log10) ([6]; 6700 nM) | level (log10) ([6]; 20000 nM) | level (log10) ([6]; 60000 nM) | level (log10) ([7]; 6700 nM) | level (log10) ([7]; 20000 nM) | level (log10) ([7]; 60000 nM)
BF4T:CD54/ICAM-1 | -0.0025 ± 0.0035 | -0.0095 ± 0.0021 | -0.002 ± 0.0057 | -0.007 ± 0.017 | 0 ± 0.038 | -0.017 ± 0.017 | -0.009 ± 0.02 | -0.016 ± 0.0014 | -0.0415 ± 0.023 | -0.0015 ± 0.011 | -0.018 ± 0.0028 | -0.0115 ± 0.016 | -0.014 ± 0.037 | -0.0295 ± 0.016 | -0.0025 ± 0.022 | -0.0085 ± 0.021 | -0.005 ± 0.023 | -0.0055 ± 0.018 | -0.01 ± 0.0028 | -0.021 ± 0.0085
BF4T:MMP-9 | 0.0085 ± 0.022 | 0.01 ± 0.047 | 0.02 ± 0.052 | 0.015 ± 0.061 | 0.0075 ± 0.049 | 0.0205 ± 0.033 | 0.017 ± 0.023 | 0.028 ± 0.0057 | 0.0375 ± 0.025 | -0.0245 ± 0.00071 | -0.0515 ± 0.0092 | -0.017 ± 0.0028 | -0.0145 ± 0.029 | -0.0225 ± 0.0064 | -0.015 ± 0.025 | -0.0265 ± 0.0078 | 0.0195 ± 0.049 | 0.0045 ± 0.012 | -0.008 ± 0.011 | -0.0435 ± 0.023
BE3C:CXCL10/IP-10 | 0.008 ± 0.0099 | 0.0015 ± 0.0092 | 0.001 ± 0.021 | -0.001 ± 0.0085 | -0.0035 ± 0.018 | 0.0095 ± 0.0021 | 0.0065 ± 0.015 | -0.0135 ± 0.00071 | -0.163 ± 0.061 | -0.0315 ± 0.0035 | -0.118 ± 0.0071 | 0.021 ± 0.0057 | 0.003 ± 0.0028 | 0.011 ± 0.011 | 0.0365 ± 0.029 | 0.0225 ± 0.04 | 0.0135 ± 0.035 | -0.0095 ± 0.0092 | -0.033 ± 0.016 | -0.015 ± 0.0014
LPS:CD40 | 0.0065 ± 0.0021 | -0.019 ± 0.02 | -0.0095 ± 0.025 | -0.0235 ± 0.023 | -0.0275 ± 0.0092 | -0.013 ± 0.027 | 0.024 ± 0.025 | 0.0265 ± 0.088 | -0.117 ± 0.093 | -0.0285 ± 0.073 | -0.16 ± 0.03 | -0.014 ± 0.017 | -0.0495 ± 0.0035 | -0.104 ± 0.064 | 0.0015 ± 0.037 | 0.024 ± 0.034 | 0.0525 ± 0.012 | -0.0185 ± 0.066 | 0.0215 ± 0.054 | 0.129 ± 0.061
BF4T:SRB | -0.009 ± 0.0028 | -0.0055 ± 0.005 | -0.0035 ± 0.0078 | -0.0065 ± 0.0064 | -0.0085 ± 0.00071 | -0.003 ± 0.014 | -0.0085 ± 0.005 | -0.002 ± 0.0042 | 0.0005 ± 0.016 | -0.0135 ± 0.0021 | -0.031 ± 0.0014 | 0.005 ± 0.0042 | 0.002 ± 0.0028 | 0.0055 ± 0.0021 | -0.003 ± 0.0042 | -0.011 ± 0.0071 | 0.0315 ± 0.039 | -0.003 ± 0.0042 | -0.008 ± 0.0028 | -0.015 ± 0.0099
BF4T:tPA | -0.0025 ± 0.0092 | 0.005 ± 0.0042 | 0.0475 ± 0.053 | 0.0025 ± 0.022 | -0.0105 ± 0.016 | -0.004 ± 0.0014 | -0.0185 ± 0.0064 | -0.041 ± 0.018 | -0.0565 ± 0.0021 | -0.028 ± 0.011 | 0.032 ± 0.014 | 0.0025 ± 0.0021 | 0.011 ± 0.023 | 0.015 ± 0.0028 | -0.0165 ± 0.032 | 0.0025 ± 0.00071 | 0.012 ± 0.023 | -0.0305 ± 0.025 | -0.0255 ± 0.022 | -0.0555 ± 0.025
BF4T:IL-1alpha | 0.001 ± 0.0071 | 0.0085 ± 0.0092 | 0.019 ± 0.024 | -0.0065 ± 0.013 | -0.0115 ± 0.013 | 0.003 ± 0.0099 | -0.02 ± 0.014 | -0.0235 ± 0.0035 | -0.0365 ± 0.015 | 0.0025 ± 0.012 | -0.025 ± 0.0057 | 0.0195 ± 0.023 | 0.0085 ± 0.026 | 0.0075 ± 0.015 | -0.005 ± 0.014 | -0.009 ± 0.0014 | 0.002 ± 0.025 | -0.008 ± 0.0085 | 0.022 ± 0.018 | 0.04 ± 0.034
LPS:M-CSF | 0.002 ± 0.0042 | 0 ± 0.0099 | -0.0055 ± 0.028 | 0.003 ± 0.0085 | 0.005 ± 0.0042 | -0.0005 ± 0.0092 | 0.0145 ± 0.023 | 0.005 ± 0.031 | 0.007 ± 0.018 | 0.0135 ± 0.015 | -0.1085 ± 0.00071 | -0.01 ± 0.016 | -0.046 ± 0.02 | -0.09 ± 0.0085 | 0.0125 ± 0.042 | 0.007 ± 0.035 | 0.0165 ± 0.023 | -0.019 ± 0.033 | -0.026 ± 0.0057 | 0.008 ± 0.03
BF4T:MMP-1 | 0.007 ± 0.024 | 0.0105 ± 0.029 | 0.015 ± 0.051 | 0.006 ± 0.02 | -0.007 ± 0.017 | 0.0015 ± 0.00071 | -0.0025 ± 0.016 | -0.004 ± 0.014 | 0.0105 ± 0.012 | -0.0245 ± 0.00071 | -0.0165 ± 0.0035 | -0.0035 ± 0.015 | -0.0005 ± 0.015 | -0.0095 ± 0.0021 | 0.009 ± 0.018 | -0.001 ± 0.013 | 0.009 ± 0.0057 | 0.0105 ± 0.046 | -0.018 ± 0.038 | 0.013 ± 0.037
LPS:CD141/Thrombomodulin | 0.0185 ± 0.023 | 0.011 ± 0.038 | -0.005 ± 0.027 | -0.042 ± 0.042 | -0.0385 ± 0.0078 | -0.0505 ± 0.0035 | 0.0135 ± 0.025 | 0.0105 ± 0.013 | -0.004 ± 0.016 | -0.106 ± 0.028 | -0.118 ± 0.005 | -0.0075 ± 0.03 | 0.0145 ± 0.04 | 0.067 ± 0.025 | 0.001 ± 0.05 | -0.0015 ± 0.005 | -0.0185 ± 0.019 | -0.0115 ± 0.016 | -0.011 ± 0.0085 | -0.007 ± 0.023
BT:sIL-6 | 0.0605 ± 0.036 | 0.0075 ± 0.0064 | -0.0525 ± 0.00071 | -0.006 ± 0.037 | 0.0005 ± 0.0092 | -0.0105 ± 0.11 | -0.0485 ± 0.0021 | -0.0025 ± 0.037 | -0.034 ± 0.085 | -0.073 ± 0.051 | -0.0655 ± 0.019 | 0.089 ± 0.0085 | 0.158 ± 0.02 | 0.231 ± 0.033 | 0.035 ± 0.0085 | -0.0015 ± 0.028 | -0.015 ± 0.041 | 0.0155 ± 0.011 | -0.0245 ± 0.069 | -0.0975 ± 0.021
BT:sIL-2 | 0.0565 ± 0.029 | -0.0065 ± 0.0021 | -0.056 ± 0.057 | -0.0155 ± 0.016 | 0.0015 ± 0.021 | 0.029 ± 0.025 | -0.046 ± 0.0057 | -0.0075 ± 0.074 | -0.006 ± 0.1 | 0.107 ± 0.059 | 0.0335 ± 0.071 | 0.015 ± 0.0042 | 0.116 ± 0.068 | 0.102 ± 0.014 | 0.0115 ± 0.035 | 0.026 ± 0.082 | -0.0115 ± 0.042 | 0.0615 ± 0.0021 | 0.0305 ± 0.042 | -0.0025 ± 0.14
BF4T:CD106/VCAM-1 | -0.0245 ± 0.0021 | -0.044 ± 0.025 | -0.0065 ± 0.086 | -0.014 ± 0.0042 | -0.005 ± 0.023 | 0.003 ± 0.023 | -0.0315 ± 0.021 | -0.0315 ± 0.0064 | -0.032 ± 0.017 | -0.0455 ± 0.0021 | -0.096 | -0.0135 ± 0.07 | -0.0035 ± 0.074 | -0.049 ± 0.027 | 0.009 ± 0.013 | -0.021 ± 0.011 | -0.0245 ± 0.0035 | 0.009 ± 0.042 | 0.024 ± 0.0014 | -0.0055 ± 0.04
4H:CD87/uPAR | -0.0115 ± 0.0021 | -0.0245 ± 0.022 | -0.0255 ± 0.0064 | 0.0405 ± 0.07 | 0.0305 ± 0.052 | 0.0185 ± 0.064 | 0.0015 ± 0.028 | 0.026 ± 0.0057 | 0.034 ± 0.023 | -0.117 ± 0.022 | -0.226 ± 0.029 | 0.0005 ± 0.011 | 0.001 ± 0.0099 | -0.0095 ± 0.039 | 0.035 ± 0.03 | 0.012 ± 0.0014 | 0.055 ± 0.048 | 0.005 ± 0.0071 | 0.011 ± 0.02 | -0.117 ± 0.032
